Results on one substance are retold here after patent US10143748B2, “B-cell reduction using CD37-specific and CD20-specific binding molecules” (Emergent Product Development Seattle, LLC, priority 2005, dated 2018).

One assay has as its system B-CLL cells. Kind of assay: MTT cell viability of CLL cells with fludarabine and TRU-016. The following applies: MTT at 48 hr, TRU-016 with fludarabine, FIG. 27. The assay is classed as cell-based, human. The method, then: Cells were treated with TRU-016 at dosages ranging from 0.1-100 μg/mL and with fludarabine at dosages ranging from 0-20 μM (see FIG. 27). TRU-016 was provided by Trubion Pharmaceuticals (Seattle, Wash.). Fludarabine (F-araA) was purchased from SIGMA (St. Louis, Mo.). RPMI 1640 media was purchased from Invitrogen (Carlsbad, Calif.). Fluorescein isothiocyanate (FITC)-labeled annexin V, and propidium iodide (P1) were purchased from BD Pharmingen, San Diego, Calif. 13-(4,5-dimethylthiazol-2-yl)-2,5-diphenyltetrazolium bromide (MTT) was purchased from Sigma (St. Louis, Mo.). B-CLL cells were isolated immediately following donation using ficoll density gradient centrifugation (Ficoll-Paque Plus, Amersham Biosciences, Piscataway, N.J.). […]
Cells were treated in vitro as described herein. […] Cell viability was assessed using MTT assays at 48 hr, and apoptosis was measured using Annexin V/PI at 24 hr.
MTT assays were performed to measure cell viability as described herein. […] Samples were measured with a plate reader at 0.D.540. Cell viability was expressed as the percentage of viability compared with media control.
A synergistic effect was determined by use of the isobologram method. […]

The subject of a further assay is Ramos cells. The assay can be described thus: Annexin V/PI apoptosis analysis, Ramos. Conditions: 24 hours, TRU-016 10 μg/mL (unfractionated). The assay is classed as cell-based, human. The protocol: Experiments examining the effect of B cell targeted SMIPS on B cell line apoptosis were performed. Each SMIP was tested individually and then in combination. Samples were analyzed at both 24 and 48 hours after initiation of incubation reactions. […] In addition, 20 μg/mL goat anti-human IgG was added to reactions in order to cross link reagents on the cell surface. Cells were then stained with Annexin V-FITC and propidium iodide using the BD Pharmigen Apoptosis Detection Kit I (#556547), and processed according to kit instructions. Briefly, cells were washed twice with cold PBS and resuspended in “binding buffer” at 1×10^6 cells/mL. One hundred microliters of the cells in binding buffer were then stained with 5 μl of Annexin V-FITC and 5 μl of propidium iodide. The cells were gently vortexed and incubated in the dark at room temperature for 15 minutes. Four hundred microliters of binding buffer was then added to each sample. They were then read and analyzed on a FACsCalibur (Becton Dickinson) instrument using Cell Quest software (Becton Dickinson).
Similar data were obtained whether Ramos or BJAB cells were used as the binding targets in these assays.

“G28-1 scFv VH11S(SSC—P)H WCH2 WCH3 [TRU-016]”: in the assay with B-CLL cells, the “relative cell viability in cells treated with fludarabine” value was “effectively reduced relative cell viability”. The “% of annexin V positive-PI negative cells” value with Ramos cells (8.5% before) was 19.7%. Further, the “% of annexin V-PI double positive cells” value in the assay with Ramos cells (11.3% before) worked out at 32.8%.
